The values that follow come from patent US6172091A, “1,2-Disubstituted cyclopropanes” (Ortho-McNeil Pharmaceutical, Inc., priority 1999, dated 2001).

Each structure is given as a SMILES string.

Assay [1] has as its system parathyroid hormone (PTH). Kind of assay: parathyroid hormone (PTH) suppression in a rat model. Particulars: 30 mg/kg test compound, levels measured after 15 minutes; for change in vivo at 30 mg/kg: Rattus norvegicus, po, 0.25 h, read-out: In Vivo: % blood serum PTH vs. vehicle. Format: in vivo. On the procedure: (§1) In vitro potency is measured via calcium mobilization in a fluorescence assay using HEK 293 cells transfected to express the same calcium sensing receptor as found in the human parathyroid gland. In this assay calcium-sensing receptor agonists and antagonists are detected. The assay is conducted in a 96-well plate format with the use of FLIPR (fluorescent imaging plate reader; Molecular Devices, Sunnyvale, Calif.). The HEK 293 cell media is replaced with the fluorescence dye FLUO-3AM and Pluronic detergent in FLIPR assay buffer. Cells are incubated 60 min (in the dark, at room temperature), then washed with assay buffer and placed in FLIPR. Images are collected by FLIPR in the absence of test compound, then in the presence of test compound (at 25 µM) and then after addition of a calcium challenge (at 1 mM). In the agonist assay the difference between maximum and minimum fluorescence values is measured following test compound addition. Hits have a change in fluorescence greater than or equal to 50% of that seen with a 1 mM calcium standard. In the antagonist assay the difference between maximum and minimum fluorescence values is measured following the calcium challenge addition. When compared to challenge in the absence of test compound, hits reduce fluorescence by at least 50%. In vivo activity is measured via parathyroid hormone (PTH) supression by test compounds in a rat model. Compound is administered orally using 0.5% Tween 80 in distilled water as vehicle, with a volume of approximately 10 mL/kg body weight. Blood samples are taken at 15 minutes (and 4 h if required) post oral dosing. Serum PTH levels are determined with an immunoradiometric assay.
(§2) Not all compounds were tested in each of the screens. […] Each entry represents a mixture of cis and trans cyclopropanes (R,S; S,R; R,R; S,S) with R absolute configuration when R^3=CH3. Table 2 lists compounds that are trans at the cyclopropane (R,R; S,S) with R absolute configuration at the benzylamine position, or without stereochemistry at the benzylamine. Table 3 lists compounds with R,R absolute stereochemistry at the cyclopropane and a mixture of stereochemistry at the benzylamine position. 20. In vitro data in Table 1 is percent activation of the calcium-sensing receptor versus baseline. In vitro data in Tables 2-7 is expressed as a CS50, where potency is at 50% of the calcium standard potency, and the unit is μM. In vivo data represents % blood serum PTH vs. vehicle at 30 mg/kg test compound, levels measured after 15 minutes.

The target of assay [2] is T1, calcium sensing receptor as found in the human parathyroid gland (Homo sapiens, UniProt P41180).
T1 construct: expressed in transfected cells; host or cells: HEK 293
T1 sequence (P41180 20-1078): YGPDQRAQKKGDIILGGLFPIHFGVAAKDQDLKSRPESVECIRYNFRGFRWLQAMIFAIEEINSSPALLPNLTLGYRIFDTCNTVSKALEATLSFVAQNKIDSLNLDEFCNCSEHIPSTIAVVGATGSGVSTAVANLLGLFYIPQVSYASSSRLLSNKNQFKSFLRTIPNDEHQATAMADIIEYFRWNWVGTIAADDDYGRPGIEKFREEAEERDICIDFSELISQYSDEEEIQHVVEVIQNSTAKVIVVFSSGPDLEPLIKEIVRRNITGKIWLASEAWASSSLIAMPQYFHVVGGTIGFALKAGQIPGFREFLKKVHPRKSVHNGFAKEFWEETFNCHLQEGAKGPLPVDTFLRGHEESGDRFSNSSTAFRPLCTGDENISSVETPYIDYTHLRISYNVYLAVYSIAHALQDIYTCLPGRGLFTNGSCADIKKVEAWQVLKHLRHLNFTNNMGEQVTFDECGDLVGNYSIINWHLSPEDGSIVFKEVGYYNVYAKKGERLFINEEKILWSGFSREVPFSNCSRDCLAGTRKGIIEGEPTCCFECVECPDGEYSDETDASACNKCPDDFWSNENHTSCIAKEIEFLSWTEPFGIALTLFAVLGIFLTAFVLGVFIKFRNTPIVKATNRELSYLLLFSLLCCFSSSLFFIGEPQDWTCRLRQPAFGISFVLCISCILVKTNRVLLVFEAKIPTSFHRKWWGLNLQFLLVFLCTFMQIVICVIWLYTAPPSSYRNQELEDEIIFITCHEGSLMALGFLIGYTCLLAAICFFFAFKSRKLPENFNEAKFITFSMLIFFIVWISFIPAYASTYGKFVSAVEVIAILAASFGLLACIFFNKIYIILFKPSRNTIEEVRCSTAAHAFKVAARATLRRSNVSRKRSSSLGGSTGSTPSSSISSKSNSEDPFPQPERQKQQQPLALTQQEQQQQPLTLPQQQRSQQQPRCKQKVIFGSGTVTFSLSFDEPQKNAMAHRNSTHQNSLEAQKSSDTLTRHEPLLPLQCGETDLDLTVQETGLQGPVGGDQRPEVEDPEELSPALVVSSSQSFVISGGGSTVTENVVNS
Kind of assay: calcium mobilization fluorescence (FLIPR) assay, agonist mode. Format: cell-based. Particulars: transfected HEK 293 cells; 1 mM calcium standard; Tables 2-7; read-out: In Vitro: CS50, where potency is at 50% of the calcium standard potency. As to the method: as §1, §2
Background: A change in cytosolic calcium serves as a functional read-out for many receptors and channels.

Consider `COc1cccc([C@@H](C)NCC2CC2c2cc(C)ccc2C)c1` (stereo partly drawn) [Compound 33], for which the “In Vivo: % blood serum PTH vs. vehicle” value in assay [1] (oral, 30 mg/kg) is on record as -47.6%. Besides, the EC50 in assay [2] was greater than 25 µM.
For `Cc1cccc(C(C)NC[C@@H]2C[C@H]2c2ccccc2)c1` (stereo partly drawn) [Compound 40], the change in vivo at 30 mg/kg in assay [1] was -51.2%. In addition, in assay [2], the EC50 is greater than 25 µM.
In the same order, the values of `CC(NC[C@@H]1C[C@H]1c1ccccc1)c1cccc(C(F)(F)F)c1` (stereo partly drawn) [Compound 41] are -21.4% and greater than 25 µM.
The like results for `CCc1cccc(C(C)NC[C@@H]2C[C@H]2c2ccccc2)c1` (stereo partly drawn) [Compound 42] were, in that order, -78.9% and greater than 25 µM.
Regarding `CCC(NC[C@@H]1C[C@H]1c1ccccc1)c1cccc(OC)c1` (stereo partly drawn) [Compound 43, N-((R,R)-2-phenylcyclopropanylmethyl)-1-(3-methoxyphenyl)propylamine], the change in vivo at 30 mg/kg in assay [1] was -6.3%. Besides, the EC50 in assay [2] was greater than 25 µM.
With `COc1cccc(C(C)(C)NC[C@@H]2C[C@H]2c2ccccc2)c1` [Compound 44], in assay [1], the change in vivo at 30 mg/kg is -25.8%. In addition, the EC50 in assay [2] was greater than 25 µM.
With `CC(NC[C@@H]1C[C@H]1c1ccccc1)c1cccc(F)c1` (stereo partly drawn) [Compound 45], in assay [1], the change in vivo at 30 mg/kg is -19.6%. Also, in assay [2], the EC50 is greater than 25 µM.
With `CC(NC[C@@H]1C[C@H]1c1ccccc1)c1cccc(Cl)c1` (stereo partly drawn) [Compound 46, N-((R,R)-2-phenylcyclopropanylmethyl)-1-(3-chlorophenyl)ethylamine], in assay [1], the change in vivo at 30 mg/kg is -15.9%. The EC50 in assay [2] is greater than 25 µM.
The like results for `CC(NC[C@@H]1C[C@H]1c1ccccc1)c1ccc2c(c1)OCO2` (stereo partly drawn) [Compound 47] were, in that order, -67.3% and greater than 25 µM.
In the case of `C[C@@H](NC[C@@H]1C[C@H]1c1ccccc1)c1cccc(O)c1` [Compound 48], the change in vivo at 30 mg/kg in assay [1] is -41.7%. For the same molecule, the EC50 in assay [2] worked out at 8.7 µM.
In the case of `COc1cccc([C@@H](C)NC[C@@H]2C[C@H]2c2ccccc2)c1` [Compound 49, N-((R,R)-2-phenylcyclopropanylmethyl)-1-(R)-(3-methoxyphenyl)ethylamine], the change in vivo at 30 mg/kg in assay [1] is -83.6%. Further, the EC50 in assay [2] came out at 5 µM.
Regarding `CCOc1cccc([C@@H](C)NC[C@@H]2C[C@H]2c2ccccc2)c1` [Compound 50, N-((R,R)-2-phenylcyclopropanylmethyl)-1-(R)-(3-ethoxyphenyl)ethylamine], the change in vivo at 30 mg/kg in assay [1] is -57%. Further, the EC50 in assay [2] was 11.9 µM.
The like results for `CC(C)Oc1cccc([C@@H](C)NC[C@@H]2C[C@H]2c2ccccc2)c1` [Compound 51] were, in that order, -7.3% and greater than 25 µM.
`C[C@@H](NC[C@@H]1C[C@H]1c1ccccc1)c1cccc(OC2CCCC2)c1` [Compound 52]: the change in vivo at 30 mg/kg in assay [1] was determined as 26.6%. The EC50 in assay [2] amounted to 12.2 µM.
The like results for `COc1cccc([C@@H](C)N(C[C@@H]2C[C@H]2c2ccccc2)C(C)=O)c1` [Compound 53] were, in that order, -6.4% and greater than 25 µM.
With `CCC(=O)N(C[C@@H]1C[C@H]1c1ccccc1)[C@H](C)c1cccc(OC)c1` [Compound 54], in assay [1], the change in vivo at 30 mg/kg was -33.7%. In assay [2], the EC50 is greater than 25 µM.
In the same order, the values of `COC(=O)N(C[C@@H]1C[C@H]1c1ccccc1)[C@H](C)c1cccc(OC)c1` [Compound 56] are -40.9% and greater than 25 µM.
In the same order, the values of `COc1cccc([C@@H](C)N(C[C@@H]2C[C@H]2c2ccccc2)C(=O)OCC(C)C)c1` [Compound 57] are -5.3% and greater than 25 µM.
In the same order, the values of `COc1cccc([C@@H](C)N(C[C@@H]2C[C@H]2c2ccccc2)C(=O)CNC(=O)OC(C)(C)C)c1` [Compound 58] are -12.7% and greater than 25 µM.
On to `COc1cccc([C@@H](C)NC[C@H]2C[C@@H]2c2ccccc2)c1` [Compound 60], for which the change in vivo at 30 mg/kg in assay [1] was -42.1%. In addition, the EC50 in assay [2] was 12.9 µM.
Take `COc1cccc([C@@H](C)NC[C@@H]2C[C@@H]2c2ccccc2)c1` [Compound 61]: the change in vivo at 30 mg/kg in assay [1] was 0%. For the same molecule, the EC50 in assay [2] came to 11.2 µM.
As to `COc1cccc([C@@H](C)NC[C@H]2C[C@H]2c2ccccc2)c1` [Compound 62], the change in vivo at 30 mg/kg in assay [1] stood at 0%. For the same molecule, the EC50 in assay [2] amounted to 17.6 µM.
In the same order, the values of `COc1cccc([C@H](C)NC[C@@H]2C[C@H]2c2ccccc2)c1` [Compound 63] are -40.1% and greater than 25 µM.
In the same order, the values of `COc1cccc([C@H](C)NC[C@H]2C[C@@H]2c2ccccc2)c1` [Compound 64] are -11.7% and greater than 25 µM.
As for `COc1cccc([C@H](C)NC[C@H]2C[C@H]2c2ccccc2)c1` [Compound 65], in assay [1], the change in vivo at 30 mg/kg is -38.8%. Also, the EC50 in assay [2] is greater than 25 µM.
The like results for `COc1cccc([C@H](C)NC[C@@H]2C[C@@H]2c2ccccc2)c1` [Compound 66] were, in that order, -61.8% and greater than 25 µM.
The like results for `COc1cccc([C@@H](C)NCC2C(C)C2c2ccccc2)c1` (stereo partly drawn) [Compound 67] were, in that order, -92.9% and 10.1 µM.
The like results for `COc1cccc([C@@H](C)NCC2CC2(C)c2ccccc2)c1` (stereo partly drawn) [Compound 68] were, in that order, -94.5% and greater than 25 µM.
Regarding `COc1cccc([C@@H](C)NC[C@H]2C[C@H]2c2cc(C)ccc2C)c1` [Compound 69], in assay [1], the change in vivo at 30 mg/kg was -53.9%. Also, the EC50 in assay [2] is greater than 25 µM.
In the same order, the values of `COc1cccc([C@@H](C)NC[C@@H]2C[C@@H]2c2cc(C)ccc2C)c1` [Compound 70] are -24.7% and 21 µM.
